This is an account of results in patent US10548894B2, “Combination therapy” (Array BioPharma Inc., priority 2013, dated 2020).

In general, IC50 refers to the point on the concentration scale where inhibition reaches its midpoint.

For series [1], the system named is HMEX1906 primary melanoma model (HMEX1906-R5). The series can be described thus: Efficacy in HMEX1906-R5 primary melanoma model resistant to Compound of Formula (I). It counts as in vivo. The conditions noted are these: PO; Compound C 250 mg/kg qd×21; Compound of Formula (I) 5 mg/kg bid×21. How it is done: Objective: To evaluate the efficacy of the combination of the Compound of Formula (I) and the CDK 4 inhibitor Compound C in the HMEX1906 primary melanoma model that is grown in the presence of and is resistant to 5 mg/kg the Compound of Formula (I) (HMEX1906-R5)
Drug formulation: Compound C is formulated in 0.5% MC/0.5% Tween80 and the Compound of Formula (I) is formulated in 20% PEG300/3% ETPGS.
Tumors are chopped/minced into cell line like suspension (tumors homogenized). 7 mL of matrigel added and 1.5 mL of HBSS. Suspension warmed in palm until Matrigel is thick and implanted with a 18G needle s.c right flank of female nude mice.
The mice were assigned to the following groups at 18 days post implant with an average tumor volume of 266 mm^3 and average body weight of 25 grams.
Groups: 10 mice/group, route PO, dose volume 0.2 mL
Group 1: Vehicle, 0 mg/kg bid×14
Group 2: Compound C, 250 mg/kg qd×21
Group 3: Compound of Formula (I), 5 mg/kg bid×21
Group 4: Compound C 250 mg/kg qd×21+Compound of Formula (I) 5 mg/kg bid×21

A further series concerns WM-266-4 cells. Nature of the series: Microscopy imaging assay (viable nuclei count), 72 h. It counts as cell-based. The conditions noted are these: Homo sapiens, WM-266-4 parent, single agent. The protocol: (§1) Compound stocks are prepared in DMSO at a final concentration of 10 mM. Working stocks are serially diluted in the appropriate cell culture medium in 3-fold increments to achieve final assay concentrations ranging from 2.7 μM to 1.2 nM.
(§2) A-375 and WM-266-4 cells were purchased from American Type Culture Collection (ATCC). The A-375 cells were cultured in DMEM medium (ATCC) and the WM-266-4 cells were cultured in EMEM medium (ATCC) both supplemented with 10% fetal bovine serum (Gibco) and incubated at 37° C./5% CO2. The cell lines engineered to express commonly occurring alleles indicative of resistance were acquired from Novartis-Emeryville. These resistant models include, A-375 cells expressing mutant MEK1P124L, truncated p61-BRAFV600E, or mutant NRASQ61K, and WM-266-4 cells expressing mutant MEK1C121S, truncated p61-BRAFV600E, or mutant NRASQ61K. These cells were cultured in the appropriate parental medium with selection marker G418 and in the presence of 5 uM LFE158 (MEK mutants) or LIH720 (truncated p61-BRAFV600E).
(§3) For screening, cells were seeded in 80 ul of medium in 384-well plates (Thermo Scientific, cat#4332) at 500 (A-375) or 750 (WM-266-4) cell densities per well using a MultiDrop Combi (Thermo-Fisher) with an 8-channel standard cassette. To promote an even distribution of cells across the entire well, cells were briefly centrifuged at 1000 RPM and incubated at room temperature 30 minutes. All plates were incubated at 37° C., 5% CO2 for 24 h prior to compound addition. Compound stock was freshly prepared in the appropriate culture medium, and added using a PAA robot equipped with a 200n1 pin tool. In a minimum of three replicate wells, single agent and combination effects after 72 hours, were assessed by both quantification of cellular ATP levels via Cell Titer Glo (Promega) according to the manufacturer's protocol and by microscopy imaging. For imaging, cells were fixed to the plates and permeabilized with a solution of 10% PFA, 0.3% TX-100 in PBS via a WellMate dispenser with controlled dispensing speeds. Cell nuclei were stained with Hoechst 33342 (H3570, Invitrogen), and all necessary washing steps were performed by a BioTek washer.
(§4) An automated image analysis pipeline was established using custom-made scripts in the open-source, statistical programming language R, and functions of the BioConductor package EBImage. The goal was to quantify the number of viable nuclei (cells) per well as an approximation for cell viability. The pipeline was comprised of seven steps: (I.) smoothing of the image to reduce the number of intensity peaks, (II.) application of a thresholding function to separate the foreground (signal) from the background (noise), (III.) identification of local maxima in the foreground that serve as seeds for the nuclei, (IV.) filtering of local maxima in close proximity, (V.) propagation of the nuclei from remaining local maxima, (VI.) and extraction of object features from the propagated nuclei (numbers of nuclei, size features and intensity features). As a last step (VII.), to exclude debris (e.g. fragmented nuclei) from counting, objects identified in DMSO- and Staurosporin-treated wells were used to obtain feature distributions for viable and fragmented nuclei, respectively. These were used to set cut-offs differentiating between viable and fragmented nuclei. The number of fragmented nuclei was subtracted from the total number of identified objects and the result was reported as final count for that well.
(§5) Data comprised triplicate measurements for each treatment (compound) condition, 42 replicates of DMSO-treated wells, and duplicates of Staurosporin-treated wells. The data was normalized to the median of the DMSO measurements and summarized by calculating the median of the triplicates. Data was imported into Chalice to calculate compound synergies.

In series [2] the test system is A-375 cells expressing mutant MEK1P124L. Described as above. It counts as cell-based. Conditions: Homo sapiens, A-375 MEK1P124L, single agent. The protocol: as §1, §2, §3, §4, §5
For a further series, the system named is A-375 cells. Described as above. It counts as cell-based. Conditions: Homo sapiens, A-375 parent, single agent. The protocol:
as §1, §2, §3, §4, §5

The subject of series [3] is WM-266-4 cells expressing mutant MEK1C121S. The series is described as above. It counts as cell-based. Conditions: Homo sapiens, WM-266-4 MEK1C121S, single agent. How it is done: as §1, §2, §3, §4, §5
The test system of series [4] is A-375 cells expressing mutant NRASQ61K. Described as above. It counts as cell-based. The conditions noted are these: Homo sapiens, A-375 NRASQ61K, single agent. How it is done:
as §1, §2, §3, §4, §5

In the case of `COC(=O)N[C@@H](C)CNc1nccc(-c2cn(C(C)C)nc2-c2cc(Cl)cc(NS(C)(=O)=O)c2F)n1` [Compound of Formula (I)], the “Mean change of body weight” value in series [1] is 3.5 ± 1.1 % ± SEM. For the same compound, the “Mean change of tumor volume” value in series [1] is reported as 807 ± 106 mm3 ± SEM. Besides, the “Mean change of tumor volume vs control (T/C)” value in series [1] came to 39%. The “Survival (Survivors/Total)” value in series [1] is 10/10. The IC50 in the series on WM-266-4 cells amounted to 0.003 µM; in series [2] it was 0.3 µM; in the series on A-375 cells, 0.004 µM; in series [3], 0.058 µM; in series [4] it was 0.133 µM.
